# Experimental data as given in patent US10280169B2, “Biaryl bruton's tyrosine kinase inhibitors” (BIOGEN MA INC., priority 2013, dated 2019).
# How the values were obtained:
# pBTK = target: T1, pBTK (Homo sapiens, UniProt Q06187); assay: In vitro PD assay in whole blood (pBTK assay); type: cell-based; details: 30 min at 37° C.
# T1 construct: Heparinized venous blood was purchased from Bioreclamation, Inc. or SeraCare Life Sciences; tissue Bioreclamation, Inc. or SeraCare Life Sciences; host or cells: heparinized venous whole blood
# Procedure: Heparinized venous blood was purchased from Bioreclamation, Inc. or SeraCare Life Sciences and shipped overnight. Whole blood was aliquoted into 96-well plate and “spiked” with serial dilutions of test compound in DMSO or with DMSO without drug. The final concentration of DMSO in all wells was 0.1%. The plate was incubated at 37° C. for 30 min. Lysis buffer containing protease and phosphatase inhibitors was added to the drug-containing samples and one of the DMSO-only samples (+PPi, high control), while lysis buffer containing protease inhibitors was added to the other DMSO-only samples (−PPi, low control). All of the lysed whole blood samples were subjected to the total BTK capture and phosphotyrosine detection method described in Example 30. ECL values were graphed in Prism and a best-fit curve with restrictions on the maximum and minimum defined by the +PPi high and −PPi low controls was used to estimate the test compound concentration that results in 50% inhibition of ECL signal by interpolation.
# In some instances where a compound tested has activity “D”, other structurally similar compounds beyond the measurable limits of the assay are not included in Table 2.
# BTK = target: T2, BTK (Homo sapiens, UniProt Q06187); assay: In vitro BTK kinase assay: BTK-POLYGAT-LS assay; type: biochemical; details: 10 uM ATP, read-out: IC50 (10 uMATP)
# T2 construct: purchased Upstate 14-552
# T2 sequence (Q06187 whole entry): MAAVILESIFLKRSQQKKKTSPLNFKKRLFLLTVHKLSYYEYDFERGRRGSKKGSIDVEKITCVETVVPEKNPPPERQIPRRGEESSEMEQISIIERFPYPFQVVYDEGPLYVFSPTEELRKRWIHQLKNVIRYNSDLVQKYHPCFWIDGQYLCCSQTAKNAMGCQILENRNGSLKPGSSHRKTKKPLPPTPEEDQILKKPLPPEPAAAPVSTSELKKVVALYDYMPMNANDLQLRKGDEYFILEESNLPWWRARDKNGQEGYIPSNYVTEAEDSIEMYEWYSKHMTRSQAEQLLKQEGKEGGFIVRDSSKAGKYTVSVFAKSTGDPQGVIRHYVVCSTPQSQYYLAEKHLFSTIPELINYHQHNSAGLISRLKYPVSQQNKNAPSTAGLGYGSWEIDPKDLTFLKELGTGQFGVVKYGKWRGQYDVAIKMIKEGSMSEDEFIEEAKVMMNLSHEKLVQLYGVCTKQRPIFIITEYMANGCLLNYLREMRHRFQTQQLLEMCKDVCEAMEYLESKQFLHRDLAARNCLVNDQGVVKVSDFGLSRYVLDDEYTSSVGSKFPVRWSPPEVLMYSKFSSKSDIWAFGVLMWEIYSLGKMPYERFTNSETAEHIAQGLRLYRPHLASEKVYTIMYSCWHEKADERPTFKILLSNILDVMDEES
# T1 sequence (Q06187 whole entry): as above
Compound,IC50 (pBTK),IC50 (BTK)
"Cc1cc(-c2ncnc3[nH]c(C4=CCN(C(=O)N(C)C)CC4)cc23)ccc1CNC(=O)c1cnc(C(C)(C)C)s1 [Example I-19, 2-(tert-butyl)-N-(4-(6-(1-(dimethylcarbamoyl)-1,2,3,6-tetrahydropyridin-4-yl)-7H-pyrrolo[2,3-d]pyrimidin-4-yl)-2-methylbenzyl)thiazole-5-carboxamide]",< 500 nM,< 10 nM
"CCn1cc(-c2cc3ncnc(-c4ccc(CNC(=O)c5ncc(C(C)(C)C)s5)c(C)c4)c3[nH]2)cn1 [Example I-40, 5-(tert-butyl)-N-(4-(6-(1-ethyl-1H-pyrazol-4-yl)-5H-pyrrolo[3,2-d]pyrimidin-4-yl)-2-methylbenzyl)thiazole-2-carboxamide]",< 500 nM,< 10 nM
"O=C(NC1CCCc2cc(-c3ncnc4[nH]ccc34)ccc21)c1cc2c(s1)CCCC2 (stereo not shown) [Example I-16, N-(6-(7H-pyrrolo[2,3-d]pyrimidin-4-yl)-1,2,3,4-tetrahydronaphthalen-1-yl)-4,5,6,7-tetrahydrobenzo[b]thiophene-2-carboxamide]",1500 to 10000 nM,10 to 99 nM
"Cc1cc(-c2ncnc3cc(C4=CCS(=O)(=O)CC4)[nH]c23)ccc1CNC(=O)c1cnc(C(C)(C)C)s1 [Example I-22, 2-(tert-butyl)-N-(4-(6-(1,1-dioxido-3,6-dihydro-2H-thiopyran-4-yl)-5H-pyrrolo[3,2-d]pyrimidin-4-yl)-2-methylbenzyl)thiazole-5-carboxamide]",< 500 nM,< 10 nM
"Cn1cc(-c2cc3c(-c4ccc5c(c4)CCCC5NC(=O)c4cnc(C(C)(C)C)s4)ncnc3[nH]2)cn1 (stereo not shown) [Example I-34, 2-(tert-butyl)-N-(6-(6-(1-methyl-1H-pyrazol-4-yl)-7H-pyrrolo[2,3-d]pyrimidin-4-yl)-1,2,3,4-tetrahydronaphthalen-1-yl)thiazole-5-carboxamide]",< 500 nM,< 10 nM

# The next lines start with the values.
IC50 (pBTK),IC50 (BTK),Compound
500 to 1500 nM,< 10 nM,"Cc1cc(-c2ncnc3cc(-c4cn[nH]c4)[nH]c23)ccc1CNC(=O)c1ncc(C(C)(C)C)s1 [Example I-41, N-(4-(6-(1H-pyrazol-4-yl)-5H-pyrrolo[3,2-d]pyrimidin-4-yl)-2-methylbenzyl)-5-(tert-butyl)thiazole-2-carboxamide]"
< 500 nM,< 10 nM,"Cc1cc(-c2ncnc3nc(N4CCOCC4)[nH]c23)ccc1CNC(=O)c1cnc(C(C)(C)C)s1 [Example I-48, 2-(tert-butyl)-N-(2-methyl-4-(8-morpholino-7H-purin-6-yl)benzyl)thiazole-5-carboxamide]"
500 to 1500 nM,< 10 nM,"Cc1cc(-c2ncnc3nc(N4CCC(N(C)C)CC4)[nH]c23)ccc1CNC(=O)c1cnc(C(C)(C)C)s1 [Example I-49, 2-(tert-butyl)-N-(4-(8-(4-(dimethylamino)piperidin-1-yl)-7H-purin-6-yl)-2-methylbenzyl)thiazole-5-carboxamide]"
500 to 1500 nM,< 10 nM,"Cc1cc(-c2ncnc3cc(-c4cnn(C)c4)[nH]c23)ccc1C(CO)NC(=O)c1cnc(C(C)(C)C)s1 (stereo not shown) [Example I-44, 2-(tert-butyl)-N-(2-hydroxy-1-(2-methyl-4-(6-(1-methyl-1H-pyrazol-4-yl)-5H-pyrrolo[3,2-d]pyrimidin-4-yl)phenyl)ethyl)thiazole-5-carboxamide]"
1500 to 10000 nM,10 to 99 nM,"Cc1cc(-c2ncnc3cc(-c4cnn(C)c4)[nH]c23)ccc1C(CO)NC(=O)c1cc2c(s1)CCOC2 (stereo not shown) [Example I-45, N-(2-hydroxy-1-(2-methyl-4-(6-(1-methyl-1H-pyrazol-4-yl)-5H-pyrrolo[3,2-d]pyrimidin-4-yl)phenyl)ethyl)-6,7-dihydro-4H-thieno[3,2-c]pyran-2-carboxamide]"
1500 to 10000 nM,< 10 nM,"Cc1cc(-c2ncnc3cc[nH]c23)ccc1CNC(=O)c1cc2c(s1)CCCC2 [Example I-116, N-(2-methyl-4-(5H-pyrrolo[3,2-d]pyrimidin-4-yl)benzyl)-4,5,6,7-tetrahydrobenzo[b]thiophene-2-carboxamide]"
